Results taken from patent US20250144205A1, “COMPOSITIONS AND METHODS FOR TREATING INFECTIOUS DISEASES” (priority 2022, published 2025).

Test system: TSE-induced lung injury (TSE-LI)
Assay: chronic tobacco smoke exposure induced lung injury (TSE-LI) in wild-type mice
Assay type: in vivo
Procedure: Recombinant full-length U5a protein (U5a^FL), extracellular domain of U5a^FL (U5a^ECD) and U5a^ECD-specific monoclonal antibody (U5a^mAb, the 17C9 1 anti-U5a antibody comprising the sequences of SEQ ID NOs. 204 and 211) mitigated chronic TS exposure (TSE) induced lung injury (TSE-LI) in wild-type (WT) mice. WT mice were kept in ambient AIR or exposed to tobacco smoke (TSE) for 4 h/day 5 days a week. After 16 weeks, WT mice with TSE-LI were left untreated (None) or treated with 2.5 mg/kg of U5a^FL, U5a^ECD and U5amAb 5 days a week for 4 weeks by IP injection. Total lung RNA were analyzed for MUC5AC (M5Ac) (FIG. 12A), FOXA2 (FIG. 12B) and surfactant protein-C(SP-C) (FIG. 12C) mRNA by qPCR. Lung sections of mice treated as in FIG. 12A were subjected to IHC analysis for M5Ac (FIG. 12D). We found increased expression of U5a in AECs and ATII cells in lungs of patients with COPD and mice with TSE-LI. […] In addition, increased surfactant protein-C(SP-C) indicates improved survival of ATII cells, which is otherwise reduced due to increased TSE-induced senescence and apoptosis of ATII cells seen in mice with TSE-LI left untreated.

Substance: U5a^ECD: extracellular domain of U5a^FL; ECD of UNC5A given as SEQ ID NO: 103
- MUC5AC (M5Ac) expression (lung mRNA by qPCR, IHC) (WT mice with TSE-LI, 2.5 mg/kg IP 5 days a week for 4 weeks, FIG. 12A, 12D): significantly inhibits
- FOXA2 mRNA (qPCR) (WT mice with TSE-LI, 2.5 mg/kg IP 5 days a week for 4 weeks, FIG. 12B): inducing
- surfactant protein-C (SP-C) mRNA (qPCR) (WT mice with TSE-LI, 2.5 mg/kg IP 5 days a week for 4 weeks, FIG. 12C): increased
- chronic TS exposure (TSE) induced lung injury (TSE-LI) (WT mice, 2.5 mg/kg IP 5 days a week for 4 weeks after 16 weeks TSE): mitigated
